Patent publication US20240239775A1, “FXR REGULATOR, PREPARATION METHOD THEREFOR, PHARMACEUTICAL COMPOSITION THEREOF AND USE THEREOF” (QINGDAO RUIJI MEDICAL TECHNOLOGY CO., LTD., priority 2021, published 2024)

target: T1, FXR (Homo sapiens, UniProt Q96RI1); assay: FXR antagonist screening by TR-FRET (LanthaScreen TR-FRET FXR co-activation assay kit); format: biochemical; conditions: Table 1.1, FXR antagonistic activity; TR-FRET with CDCA; geometric means of at least two independent runs
T1 construct: 5 μL of 20 nM FXR-LBD Complete Coregulator buffer G; purchased ThermoFisher PV4833
T1 sequence (Q96RI1 262-486 limits assumed): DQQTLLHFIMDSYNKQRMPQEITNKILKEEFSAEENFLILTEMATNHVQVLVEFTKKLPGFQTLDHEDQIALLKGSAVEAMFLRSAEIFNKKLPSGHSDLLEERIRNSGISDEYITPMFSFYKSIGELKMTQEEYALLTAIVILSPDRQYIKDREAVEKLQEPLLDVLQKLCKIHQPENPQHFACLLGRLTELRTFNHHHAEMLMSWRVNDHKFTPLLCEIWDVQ
Procedure: FXR activity was evaluated by time-resolved fluorescence resonance energy transfer (TR-FRET) assay, using LanthaScreen™ TR-FRET FXR co-activation assay kit (ThermoFisher, Cat. PV4833). For agonist screening, 10 μL of Complete Coregulator buffer G containing the corresponding concentration of the compound to be tested, 5 μL of 20 nM FXR-LBD Complete Coregulator buffer G, and 5 μL of 2.0 μM Fluorescein-SRC2-2/20 nM Tb-anti-GST antibody Complete Coregulator buffer G were added to each well of a 384-well black plate (Coring) in sequence. […] Three duplicate wells were set up for each compound, with CDCA as the positive compound and DMSO as the solvent control. For antagonist screening, 5 μL of Complete Coregulator buffer G containing the corresponding concentration of the compound to be tested, 5 μL of 20 nM FXR-LBD Complete Coregulator buffer G, 5 μL of 200 μM CDCA FXR-LBD Complete Coregulator buffer G, and 5 μL of 2.0 μM Fluorescein-SRC2-2/20 nM Tb-anti-GST antibody Complete Coregulator buffer G were added to each well of a 384-well black plate (Coring) in sequence and incubated at room temperature for 10 h. Following operations were the same as those for agonist screening

SMILES | IC50 [µM]
CCOC(=O)c1oc2ccc(S(=O)(=O)N(CCc3ccccc3)Cc3ccccc3N3CCN(C(=O)OC(C)(C)C)CC3)cc2c1C [Example M8-87, ethyl 3-methyl-5-(N-(2-(4-(tert-butoxycarbonyl)piperazin-1-yl)benzyl)-N-phenethylsulfamoyl)benzofuran-2-carboxylate] | 50 to 100
CCOC(=O)c1oc2ccc(S(=O)(=O)N(CCc3ccccc3)c3ccccc3N3CCN(C(=O)CC(C)(C)C)CC3)cc2c1C [Example M10-94] | 50 to 100
CCOC(=O)c1oc2ccc(S(=O)(=O)N(CCc3ccccc3)Cc3ccc(N4CCOCC4)cc3)cc2c1C [Example M8-79, ethyl 3-methyl-5-(N-(4-morpholinobenzyl)-N-phenethylsulfamoyl)benzofuran-2-carboxylate] | 50 to 100
CCOC(=O)c1oc2ccc(S(=O)(=O)N(CCc3ccccc3)Cc3ccc(Cl)cc3F)cc2c1C [Example M4-52, ethyl 3-methyl-5-(N-(2-fluoro-4-chlorobenzyl)-N-phenethylsulfamoyl)benzofuran-2-carboxylate] | 50 to 100
CCOC(=O)c1oc2ccc(S(=O)(=O)N(CCc3ccccc3)c3ccc(N4CCN(C(=O)c5ccccc5)CC4)cc3)cc2c1C [Example M8-69, ethyl 3-methyl-5-(N-(4-(4-benzoylpiperazin-1-yl)phenyl)-N-phenethylsulfamoyl)-3-methylbenzofuran-2-carboxylate] | 50 to 100
CCOC(=O)c1oc2ccc(S(=O)(=O)N(CCc3ccccc3)c3ccc(N4CCN(C)CC4)cc3)cc2c1C [Example M8-64, ethyl 3-methyl-5-(N-(4-(4-methylpiperazin-1-yl)phenyl)-N-phenethylsulfamoyl)benzofuran-2-carboxylate] | 50 to 100
CCOC(=O)c1oc2ccc(S(=O)(=O)N(CCc3ccccc3)c3ccc(Cc4ccccc4)cc3)cc2c1C [Example M8-11, ethyl 3-methyl-5-(N-(4-benzylphenyl)-N-phenethylsulfamoyl)benzofuran-2-carboxylate] | 50 to 100
CCOC(=O)c1oc2ccc(S(=O)(=O)N(CCc3ccccc3)Cc3ccc(Br)cc3)cc2c1C [Example M4-30, ethyl 3-methyl-5-(N-(4-bromobenzyl)-N-phenethylsulfamoyl)benzofuran-2-carboxylate] | 50 to 100
CCOC(=O)c1oc2ccc(S(=O)(=O)N(CCc3ccccc3)Cc3cc(F)ccc3C)cc2c1C [Example M4-61, ethyl 3-methyl-5-(N-(2-methyl-5-fluorobenzyl)-N-phenethylsulfamoyl)benzofuran-2-carboxylate] | 50 to 100
CCOC(=O)c1oc2ccc(S(=O)(=O)N(CCc3ccccc3)Cc3ccc(Br)cc3F)cc2c1C [Example M4-53, ethyl 3-methyl-5-(N-(2-fluoro-4-bromobenzyl)-N-phenethylsulfamoyl)benzofuran-2-carboxylate] | 50 to 100
CCOC(=O)c1oc2ccc(S(=O)(=O)N(CCc3ccccc3)Cc3cccc(Br)c3)cc2c1C [Example M4-22, ethyl 3-methyl-5-(N-(3-bromobenzyl)-N-phenethylsulfamoyl)benzofuran-2-carboxylate] | 50 to 100

same assay, conditions: Table 1.2, FXR antagonistic activity; TR-FRET with CDCA; geometric means of at least two independent runs

SMILES | IC50 [µM]
CCOC(=O)c1sc2ccc(S(=O)(=O)N(CCc3cccs3)c3ccccc3N3CCN(C(=O)c4sccc4Br)CC3)cc2c1C [Example M10-183, Ethyl 5-(N-(2-(4-(3-bromothiophene-2-carbonyl)piperazin-1-yl)phenyl)-N-(2-(thiophen-2-yl)ethyl)sulfamoyl)-3-methylbenzothiophene-2-carboxylate] | 50 to 100
CCOC(=O)c1oc2ccc(S(=O)(=O)N(CCc3ccccc3)c3ccccc3N3CCN(C(=O)C4CCCS4)CC3)cc2c1C (stereo not drawn) [Example M10-143, Ethyl 5-(N-(2-(4-(tetrahydrothiophene-2-formyl)piperazin-1-yl)phenyl)-N-phenethylsulfamoyl)3-methylbenzofuran-2-carboxylate] | 50 to 100
CCOC(=O)c1oc2ccc(S(=O)(=O)N(CCc3ccccc3)c3ccccc3N3CCN(C(=O)c4cccnc4)CC3)cc2c1C [Example M10-116, Ethyl 3-methyl-5-(N-(2-(4-nicotinoylpiperazin-1-yl)phenyl)-N-phenethylsulfamoyl)benzofuran-2-carboxylate] | 50 to 100
Cc1c(C(=O)O)sc2ccc(S(=O)(=O)Nc3ccccc3N3CCN(C(=O)c4sccc4Br)CC3)cc12 [Example F27-S177, 5-(N-(2-(4-(3-bromothiophene-2-carbonyl)piperazin-1-yl)phenyl)sulfamoyl)-3-toluothiophene-2-carboxylic acid] | 0.1 to 10
CCOC(=O)c1oc2ccc(S(=O)(=O)N(CCc3ccccc3)c3ccccc3N3CCN(C(=O)c4sccc4Br)C(C)C3)cc2c1C (stereo not drawn) [Example M10-156, Ethyl 5-(N-(2-(4-(3-bromothiophene-2-formyl)-3-methylpiperazin-1-yl)phenyl)-N-phenethylsulfamoyl)3-methylbenzofuran-2-carboxylate] | 50 to 100
Cc1ccc(CCN(c2ccccc2N2CCN(C(=O)c3sccc3Br)CC2)S(=O)(=O)c2ccc3sc(C(=O)O)c(C)c3c2)cc1 [Example F27-S167, 5-(N-(2-(4-(3-bromothiophene-2-carbonyl)piperazin-1-yl)phenyl)-N-(4-methylphenylethyl)sulfamoyl)-3-methylbenzothiophene-2-carboxylic acid] | 0.1 to 10
O=C(O)c1cc2ccc(S(=O)(=O)N(CCc3ccccc3)c3ccccc3N3CCN(C(=O)c4sccc4Br)CC3)cc2s1 [Example F27-S160, 6-(N-(2-(4-(3-bromothiophene-2-carbonyl)piperazin-1-yl)phenyl)-N-phenethylsulfamoyl)benzo[b]thiophene-2-carboxylic acid] | 0.1 to 10
CCOC(=O)c1oc2ccc(S(=O)(=O)N(CCc3ccccc3)c3ccccc3N3CCN(C(=O)c4cncs4)CC3)cc2c1C [Example M10-129, Ethyl 3-methyl-5-(N-phenethyl-N-(2-(4-(thiazole-5-carbonyl)piperazin-1-yl)phenyl)sulfamoyl)benzofuran-2-carboxylate] | 50 to 100
Cc1c(C(=O)O)oc2ccc(S(=O)(=O)N(CCc3ccccc3)c3ccccc3N3C4CCC3CN(C(=O)c3sccc3Br)C4)cc12 [Example F27-S155, 5-(N-(2-(3-(3-bromothiophene-2-formyl)-3,8-diazepine[3.2.1]cyclooctan-8-yl)phenyl)-N-phenethylsulfamoyl)3-methylbenzofuran-2-carboxylic acid] | 0.1 to 10
CCOC(=O)c1oc2ccc(S(=O)(=O)N(CCc3ccccc3)c3ccccc3N3CCN(C(=O)c4cc(C)cs4)CC3)cc2c1C [Example M10-140, Ethyl 5-(N-(2-(4-(4-methylthiophene-2-formyl)piperazin-1-yl)phenyl)-N-phenethylsulfamoyl)3-methylbenzofuran-2-carboxylate] | 50 to 100
Cc1c(C(=O)O)oc2ccc(S(=O)(=O)N(CCc3ccccc3)c3ccccc3N3CCC4(CC3)CN(C(=O)c3sccc3Br)C4)cc12 [Example F27-S150] | 0.1 to 10
CCOC(=O)c1sc2ccc(S(=O)(=O)Nc3ccccc3N3CCN(C(=O)c4sccc4Br)CC3)cc2c1C [Example M10-176, Ethyl 5-(N-(2-(4-(3-bromothiophene-2-carbonyl)piperazin-1-yl)phenyl)sulfamoyl)-3-toluothiophene-2-carboxylate] | 50 to 100
CCOC(=O)c1oc2ccc(S(=O)(=O)N(CCc3ccccc3)c3ccccc3N3CCN(C(=O)c4sccc4Br)CC3)cc2c1C [Example M10-125, ethyl 5-(N-(2-(4-(3-bromothiophene-2-carbonyl)piperazin-1-yl)phenyl)-N-phenethylsulfamoyl)-3-methylbenzofuran-2-carboxylate] | 50 to 100
CCOC(=O)c1oc2ccc(S(=O)(=O)N(CCc3ccccc3)c3ccccc3N3C4CCC3CN(C(=O)c3sccc3Br)C4)cc2c1C [Example M10-155, Ethyl 5-(N-(2-(3-(3-bromothiophene-2-formyl)-3,8-diazepine[3.2.1]cyclooctan-8-yl)phenyl)-N-phenethylsulfamoyl)3-methylbenzofuran-2-carboxylate] | 50 to 100
CCOC(=O)c1cc2cc(S(=O)(=O)N(CCc3ccccc3)c3ccccc3N3CCN(C(=O)c4sccc4Br)CC3)ccc2s1 [Example M10-159, Ethyl 5-(N-(2-(4-(3-bromothiophene-2-carbonyl)piperazin-1-yl)phenyl)-N-phenethylsulfamoyl)benzo[b]thiophene-2-carboxylate] | 50 to 100
Cc1c(CO)oc2ccc(S(=O)(=O)N(CCc3ccccc3)c3ccccc3N3CCN(C(=O)c4sccc4Br)CC3)cc12 [Example F27-S184, N-(2-(4-(3-bromothiophene-2-formyl)piperazin-1-yl)phenyl)-2-hydroxymethyl-3-methyl-N-phenethylbenzofuran-5-sulfonamide] | 0.1 to 10
